Data published in patent US20240360194A1, “New Peptides as Potent and Selective GIP Receptor Agonists” (Sanofi, priority 2021, published 2024).
Numbered stars: 1 amine (or outer) side, 2 acyl side, 3 side chain; on linkers, the order of the positions; unused ones are H or OH. Square brackets hold non-standard residues; d marks the D form. Side chains are listed from the residue outwards. Ends that are not written are not given here. * marks the point of attachment. C18 diacid = O=C(O)CCCCCCCCCCCCCCCCC(=O)*; γGlu = O=C(O)[C@H](CCC(=O)[*:2])N[*:1]; AEEA = NCCOCCOCC(=O)O; Aib = CC(C)(N)C(=O)O

Assays:
[1] = molecular target: T1, human GIP receptor (hGIPR) (Homo sapiens, UniProt P48546); assay: In vitro cellular cAMP assay for GIP receptor efficacy (HEK-293 cell line over-expressing receptor); format: cell-based; conditions: EC50 hGIPR 0.1% BSA, HEK-293, 0.1% BSA
T1 sequence (P48546 22-466): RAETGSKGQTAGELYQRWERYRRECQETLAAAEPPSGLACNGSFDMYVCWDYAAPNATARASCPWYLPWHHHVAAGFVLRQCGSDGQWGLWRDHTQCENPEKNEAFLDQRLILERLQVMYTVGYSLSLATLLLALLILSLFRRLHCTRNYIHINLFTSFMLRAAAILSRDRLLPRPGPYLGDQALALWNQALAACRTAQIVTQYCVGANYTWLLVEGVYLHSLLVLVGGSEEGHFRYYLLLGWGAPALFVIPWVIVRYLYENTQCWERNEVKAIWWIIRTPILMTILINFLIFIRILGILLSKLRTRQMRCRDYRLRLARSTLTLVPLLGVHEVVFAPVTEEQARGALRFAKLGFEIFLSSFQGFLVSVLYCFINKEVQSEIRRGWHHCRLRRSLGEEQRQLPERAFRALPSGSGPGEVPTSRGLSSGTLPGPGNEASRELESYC

[2] = Solubility assessment (UHPLC-UV of supernatant, target 10 mg/ml); format: physicochemical; conditions: pH 7.4, Soluble amount
Method in brief: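 Peptides at 10 mg/ml (purity-corrected) in 100 mM phosphate pH 7.4, optionally with 2.7 mg/ml m-cresol; gentle agitation 1 h, then 5° C. overnight (24 h). Supernatant after 15 min centrifugation at 2500 RCF quantified by UHPLC-UV, with sequence-based extinction coefficients.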

human GIP receptor [3] = molecular target: T2, human GIP receptor (Homo sapiens, UniProt P48546); assay: In vitro cellular cAMP assay for GIP receptor efficacy (human adipocytes); format: cell-based
T2 construct: human adipocytes endogenously expressing the human GIP receptor; host or cells: human preadipocytes (Lonza) differentiated to adipocytes
T2 sequence (P48546 22-466): T1 sequence (P48546 22-466)
Method in brief: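 cAMP is read by HTRF (665/620 nm ratio, 1 h after reagents in lysis buffer) following 30 min compound exposure at room temperature. Cells are human preadipocyte-derived adipocytes, differentiated 6 days with insulin, dexamethasone, IBMX (200 μM), PPARγ agonist and L-thyroxine, seeded 5000 per well.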

[4] = molecular target: T1, human GIP receptor (hGIPR); assay: Binding assay, displacement of [125I]GIP from HEK-293 membranes over-expressing GIPR (SPA); conditions: [125I]GIP displacement
Method in brief: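 Membranes from HEK-293 cells over-expressing human GIPR or GLP-1R, isolated by homogenising, sonicating and ultracentrifuging at 100000×g into HEPES/EDTA/NaCl buffer with protease inhibitors, were used for binding.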

[5] = molecular target: T3, human GLP-1 receptor (hGLP-1R) (Homo sapiens, UniProt P43220); assay: Binding assay, displacement of [125I]GLP-1 from HEK-293 membranes over-expressing GLP-1R (SPA); conditions: [125I]GLP-1 displacement
Method: (1) Preparation of Membranes from HEK-293 Cells Over-Expressing GIPR or GLP-1R
HEK-293 cells recombinantly over-expressing GIPR or GLP-1R were grown to 50% confluency, washed with warm 1×PBS (Gibco) and detached in HEPES/EDTA-buffer (100 mM HEPES pH 7.5, 5 mM EDTA). Cells were harvested by centrifugation at 4° C. and 3000×g and the pellets were stored at −80° C. until further processing.
After thawing on ice, pellets were resuspended in HEPES/EDTA-buffer and homogenized on ice for 1 min using Ultra-Turray T25. After subsequent sonification the cell debris was removed by centrifugation at 1000×g and 4° C. Supernatants were then ultra-centrifuged at 100000×g and 4° C. under vacuum for 30 min. Pellets were resuspended in HEPES/EDTA/NaCl-buffer (20 mM HEPES, 1 mM EDTA, 150 mM NaCl; add 1 Complete Mini Protease inhibitor cocktail to 10 ml buffer) and protein content was determined via BCA-Protein assay.
(2) Measurement of Binding Activity of Test Compounds to Human GIPR or GLP-1R

[6] = molecular target: T3, human GLP-1 receptor (hGLP-1R); assay: In vitro cellular cAMP assay for GLP-1 receptor efficacy (HEK-293 cell line over-expressing receptor); format: cell-based; conditions: HEK-293, 0.1% BSA
human GIP receptor [7] = molecular target: T4, human GIP receptor (human, UniProt P48546 22-466); assay: cell-based or functional assay
T4 sequence (looked up): T1 sequence (P48546 22-466)

human GLP-1 receptor [8] = molecular target: T5, human GLP-1 receptor (human, UniProt P43220 24-463); assay: displacement of [125I]GLP-1 from HEK-293 membranes expressing hGLP-1R (SPA beads)
T5 construct: whole, on cells; also called hGLP-1R; hGLP-1 R

human GIP receptor [9] = molecular target: T4, human GIP receptor; assay: cell-based or functional assay; remark: listed apart in the source
human GLP-1 receptor [10] = molecular target: T5, human GLP-1 receptor; assay: cell-based or functional assay

T3 sequence (P43220 24-463): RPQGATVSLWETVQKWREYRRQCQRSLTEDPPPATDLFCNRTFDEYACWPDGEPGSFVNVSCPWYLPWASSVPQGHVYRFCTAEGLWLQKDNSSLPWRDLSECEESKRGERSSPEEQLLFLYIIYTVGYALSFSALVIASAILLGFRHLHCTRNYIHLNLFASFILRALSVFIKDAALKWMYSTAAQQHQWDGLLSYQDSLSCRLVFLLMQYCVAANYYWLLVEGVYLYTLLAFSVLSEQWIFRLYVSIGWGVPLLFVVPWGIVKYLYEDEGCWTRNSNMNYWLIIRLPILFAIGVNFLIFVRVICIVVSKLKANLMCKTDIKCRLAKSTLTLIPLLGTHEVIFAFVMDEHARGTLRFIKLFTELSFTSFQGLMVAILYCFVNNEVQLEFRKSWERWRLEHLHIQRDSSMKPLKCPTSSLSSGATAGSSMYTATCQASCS

For `CC[C@H](C)[C@H](NC(=O)[C@H](Cc1ccccc1)NC(=O)[C@H](CCC(=O)O)NC(=O)C(C)(C)NC(=O)[C@H](CCC(N)=O)NC(=O)[C@H](CCCCNC(=O)COCCOCCNC(=O)COCCOCCNC(=O)CC[C@H](NC(=O)CCCCCCCCCCCCCCCCC(=O)O)C(=O)O)NC(=O)[C@H](CCC(N)=O)NC(=O)[C@H](CCC(=O)O)NC(=O)[C@H](CCC(=O)O)NC(=O)[C@H](CC(C)C)NC(=O)C(C)(C)NC(=O)[C@@H](NC(=O)[C@H](CO)NC(=O)[C@H](CC(C)C)NC(=O)[C@H](CC(=O)O)NC(=O)[C@H](CO)NC(=O)[C@@H](NC(=O)[C@H](Cc1ccccc1)NC(=O)[C@@H](NC(=O)CNC(=O)[C@H](CCC(=O)O)NC(=O)C(C)(C)NC(=O)[C@@H](N)Cc1ccc(O)cc1)[C@@H](C)O)[C@@H](C)CC)[C@@H](C)CC)C(=O)N[C@@H](CCC(=O)O)C(=O)N[C@@H](Cc1c[nH]c2ccccc12)C(=O)N[C@@H](CC(C)C)C(=O)N[C@@H](CC(C)C)C(=O)N[C@@H](C)C(=O)N[C@@H](CCC(N)=O)C(=O)NCC(=O)N1CCC[C@H]1C(=O)N[C@@H](CO)C(=O)N[C@@H](CO)C(=O)NCC(=O)N[C@@H](CCC(=O)O)C(=O)N1CCC[C@H]1C(=O)N1CCC[C@H]1C(=O)N1CCC[C@H]1C(=O)N[C@@H](CO)C(N)=O` [SEQ ID NO: 38, H2N-Y-Aib-E-G-T-F-I-S-D-L-S-I-Aib-L-E-E-Q-K[{AEEA}2-gGlu-C18OH]-Q-Aib-E-F-I-E-W-L-L-A-Q-G-P-S-S-G-E-P-P-P-S-NH2], the EC50 [1] was 0.0531 nM, the solubility at 24 h [2] was > 9200 µg/mL and the EC50 (human GIP receptor [3]; read-out: hGIPR EC50) was 0.4 nM. For the same molecule, the Emax (human GIP receptor [3]; read-out: hGIPR Emax) was 92%, the IC50 [4] was 0.2 nM and the IC50 [5] was 73 nM. For the same molecule, the EC50 [6] was > 10 nM.

B1: SEQ ID NO: 27 (peptide)
peptide: Y[Aib]EGTFISDLSI[Aib]K([AEEA-AEEA-γGlu-C18 diacid])DRIHQEEFIEWLLAQEPSSGAPPPS-NH2
modifications: N-terminus assumed
SMILES: CC[C@H](C)[C@H](NC(=O)[C@H](Cc1ccccc1)NC(=O)[C@H](CCC(=O)O)NC(=O)[C@H](CCC(=O)O)NC(=O)[C@H](CCC(N)=O)NC(=O)[C@H](Cc1c[nH]cn1)NC(=O)[C@@H](NC(=O)[C@H](CCCNC(=N)N)NC(=O)[C@H](CC(=O)O)NC(=O)[C@H](CCCCNC(=O)COCCOCCNC(=O)COCCOCCNC(=O)CC[C@H](NC(=O)CCCCCCCCCCCCCCCCC(=O)O)C(=O)O)NC(=O)C(C)(C)NC(=O)[C@@H](NC(=O)[C@H](CO)NC(=O)[C@H](CC(C)C)NC(=O)[C@H](CC(=O)O)NC(=O)[C@H](CO)NC(=O)[C@@H](NC(=O)[C@H](Cc1ccccc1)NC(=O)[C@@H](NC(=O)CNC(=O)[C@H](CCC(=O)O)NC(=O)C(C)(C)NC(=O)[C@@H](N)Cc1ccc(O)cc1)[C@@H](C)O)[C@@H](C)CC)[C@@H](C)CC)[C@@H](C)CC)C(=O)N[C@@H](CCC(=O)O)C(=O)N[C@@H](Cc1c[nH]c2ccccc12)C(=O)N[C@@H](CC(C)C)C(=O)N[C@@H](CC(C)C)C(=O)N[C@@H](C)C(=O)N[C@@H](CCC(N)=O)C(=O)N[C@@H](CCC(=O)O)C(=O)N1CCC[C@H]1C(=O)N[C@@H](CO)C(=O)N[C@@H](CO)C(=O)NCC(=O)N[C@@H](C)C(=O)N1CCC[C@H]1C(=O)N1CCC[C@H]1C(=O)N1CCC[C@H]1C(=O)N[C@@H](CO)C(N)=O
notes: Synthetic peptide, 39 residues (Glu at 30)
In the case of B1, the “hGIPR EC50 (cAMP, human adipocytes)” value (human GIP receptor [7]) is reported as 0.6 nM, the “hGIPR Emax (cAMP, human adipocytes)” value (human GIP receptor [7]) is reported as 116% and the IC50 (human GLP-1 receptor [8]) is reported as 465 nM. For the same molecule, the “EC50 hGIPR 0% HSA (cAMP, HEK-293)” value (human GIP receptor [9]) was 0.00029 nM, the “EC50 hGIPR 0.1% BSA (cAMP, HEK-293)” value (human GIP receptor [9]) was 0.032 nM and the “EC50 hGLP-1R 0.1% BSA (cAMP, HEK-293)” value (human GLP-1 receptor [10]) was > 10 nM.
